Data set [1] is described as follows: Volume of distribution (Vss) from mouse plasma profiles. The conditions noted are these: mice, 5 mg/kg IV bolus, 2 compartment model. In kind it is in vivo. The protocol:
The volume of distribution (Vss) of compound (I) and comparative compounds (II) and (III) was determined from analysis of plasma concentration time profiles obtained from rodent species (mice), following 5 mg/kg IV bolus administration respectively. The volume of distribution was obtained by analysing the rodent plasma profiles for compound (I) and comparative compounds (II) and (III) using a 2 compartment IV bolus model in PK Solver (Excel). The volume of distribution data for compound (I) and comparative compound (II) was collected in separate experiments carried out on different days, and compared in Table 6.

The subject of data set [2] is Escherichia coli (100 isolates). The experiment in a line: MIC90 by broth microdilution (EUCAST), 100 isolates. Type of data set: cell-based. The protocol: (§1) Minimum Inhibitory Concentration (MIC90) versus 100 isolates of Escherichia coli and Klebsiella pneumonia were determined. The Minimum Inhibitory Concentration at which 90% of the isolates (strains) are inhibited (MIC90) were measured by broth microdilution in line with EUCAST susceptibility testing standards (www.eucast.org). Bacterial inocula were prepared at ca 1×10^6 CFU/mL by diluting 100-fold a 0.5 McFarland suspension. Antibacterial panels containing 50 μl of antibacterial solutions at 2× the final concentrations were diluted 2-fold with 50 μl of inoculum to give a final inoculum of ca 5×10^5 CFU/ml and desired test concentrations of antibacterial agents (0.03-64 μg/mL). The plates were incubated according to the guidelines of the Clinical and Laboratory Standards Institute (Clinical and Laboratory Standards Institute. Methods for Dilution Antimicrobial Susceptibility Tests for Bacteria That Grow Aerobically; Approved Standard-Eleventh Edition, CLSI document […], 11 Jan. 2018). The MIC90 (μg/ml) is the MIC value at which greater than or equal to 90% of the isolates (strains) within a test population are inhibited.
A general note: Broth dilution looks for growth in wells or tubes with falling amounts of substance.

The test system of data set [3] is Klebsiella pneumonia (100 isolates). The description is as above. Type of data set: cell-based. The protocol: as §1

In brackets after ≈: the same amount, converted by molar mass.

`Cc1cnccc1-c1[nH]c(N)nc1-c1ccc2c(c1)N(C(=O)C(C)(C)N)CCO2` [Compound (I), 2-amino-1-(6-(2-amino-5-(3-methylpyridin-4-yl)-1H-imidazol-4-yl)-2,3-dihydro-4H-benzo[b][1,4]oxazin-4-yl)-2-methylpropan-1-one] came in with a Vd in data set [1] of 19.7 L/kg. Moreover, the MIC90 in data set [2] was determined as 1 µg/mL (≈ 2.55 µM); in data set [3] (Klebsiella pneumoniae), 2 µg/mL (≈ 5.1 µM). Besides, the “MIC Range” value lay within 0.12 to 4.00 µg/mL in data set [2] and 0.25 to 8.00 µg/mL in data set [3].

Broadly, the Vd is the apparent volume that relates the amount in the body to the concentration in plasma or blood. Read a low Vd as confinement near the circulation. As a reminder, the MIC90 is the lowest concentration that inhibits either 90% of growth or 90% of the strains tested, depending on the study.

(Values after patent US20240228474A1, “ANTIBACTERIAL COMPOUND” (DISCUVA LIMITED, priority 2021, published 2024).)
